{
  "source": "patent US5656613A",
  "about": "“Treatment of hyperandrogenic conditions” (Merck & Co., Inc., priority 1995, dated 1997)",
  "key": {"[1]": {"conditions": "comparison with NADP-dihydrofinasteride adduct; cited from earlier work"}, "[2]": {"target": "T1, human 5α-reductase (prostate, type 2) (Homo sapiens, UniProt P31213)", "T1 construct": "host or cells: native human prostate tissue or recombinant from a baculovirus expression system; considered interchangeable", "T1 sequence (P31213 1-254)": "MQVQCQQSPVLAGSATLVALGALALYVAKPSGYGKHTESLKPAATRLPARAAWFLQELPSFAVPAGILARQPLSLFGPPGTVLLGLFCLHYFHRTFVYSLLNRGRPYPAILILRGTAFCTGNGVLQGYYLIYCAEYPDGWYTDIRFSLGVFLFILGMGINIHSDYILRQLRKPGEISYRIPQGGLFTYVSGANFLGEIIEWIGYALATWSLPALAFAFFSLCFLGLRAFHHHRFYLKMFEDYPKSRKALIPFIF", "experiment": "Inhibition of 5α-reductase by free NADP-dihydrofinasteride adduct", "format": "biochemical", "experimental": "The human isozymes were employed exclusively in this research. The native isozymes were from scalp (type 1 ) or prostate (type 2) tissues, and the recombinant forms were produced by a baculovirus expression system. Except where specified, all data refer to the prostate (type 2) isozyme, the primary target of finasteride. All of the experiments described in this application were also conducted with the recombinant type 1 isozyme, either in parallel or for confirmation."}, "[3]": {"experiment": "Nonenzymatic decomposition / stability of NADP-dihydrofinasteride adduct", "format": "physicochemical", "conditions": "for degraded at 0.235 µM: 0.1m mops, pH 7.2, 235 nM, 0.1M MOPS; for ability to dissociate to [^14 C]-dihydrofinasteride after oxidation: phenazine methosulfate / pyrazine methosulfate", "experimental": "The integrity of the NADP-[^14 C]dihydrofinasteride adduct, defined as its ability to form [^14 C]-dihydrofinasteride, was measured by high pressure liquid chromatography on a reverse phase column (VYDAC, 4.6×250 mm, 300 Å, 5 micron, flow rate=1 mL/min) in 60% aqueous methanol. The retention time was about 14 minutes, and was consistently 1.4 min longer than that for [^3 H]finasteride, as determined by co-injection. […] The halflife for decomposition was ~1 min in 0.1M ammonium formate buffer at pH 4.00 and 100° C., and these conditions gave 88% conversion to [^14 C]-dihydrofinasteride at infinite time.\nAll lines of evidence point to the covalent adduct of inhibitor and cofactor. (1) The absorbance and fluorescence spectra resemble those of NAD(P)H, the NAD-pyruvate complex and analogs and the NAD-cyanide addition complex described by Kaplan, et al. (2) On heating, the compound decomposes to (^14 C)dihydrofinasteride with a rate constant of ~6×10^-4 s^-1 and halflife of 20 min in water at neutral pH and 100° C., explaining the recovery of dihydrofinasteride in the heat-denaturation experiments above. […] (4) Securing the identification, the most prominent parent ion peak in its mass spectrum had the correct charge/mass ratio of 1116 Da.\nThe rate constant for nonenzymatic breakdown of the covalent intermediate to NADP^+ and dihydrofinasteride was determined under the same conditions used for the enzyme kinetic constants. See Example 5. A constant kx =7.21+0.27×10^-7 s^-1 and a halflife of 11.1±0.4 days at pH 7.2 and 37° C. was calculated. The formation of [^14 C]dihydrofinasteride went to 75% completion at infinite lime, presumably due to competing side reactions like oxidation of the dihydropyridine ring.\nThe decay of the isolated complex to NADP+ and [^14 C]dihydrofinasteride was measured as a function of time to determine the rate constant for nonenzymatic decomposition of NADP-dihydrofinasteride. The complex (235 nM) was incubated in 0.1M MOPS, 0.1% BSA, and 1 mM EDTA at pH 7.2 and 37° C., and fractions were taken each day and stored at -75° C. These were later analyzed by reverse phase chromatography as described for the assay using a neutral isocratic system of 60% methanol, where [^14 C]dihydrofinasteride has a retention time of 14 min. The y-axis is expressed relative to the total ^14 C-label in each sample injected (2,410 dpm). The reaction went to 0.753 completion at infinite time, as determined by heating at 100° C. The results, as determined by nonlinear regression are consistent with first-order decay with a rate constant kx =7.21+0.27×10^-7 s^-1 and 0.754±0.015 conversion at infinite time as determined by nonlinear regression."}, "[4]": {"experiment": "Partition of released polar component into chloroform", "format": "physicochemical", "conditions": "released by denaturation in guanidine hydrochloride", "description": "Eventually, it became evident that dihydrofinasteride is not the immediate product released upon denaturation of the enzyme-inhibitor complex. Several lines of evidence pointed to release of a much more polar [^3 H]-labeled component. Among these, it was disconcerting that recoveries of [^3 H]dihydrofinasteride on the reverse phase column were often only 35-45% of the radioactivity released from heat-denatured enzyme-inhibitor complex, the remainder never eluting (under acidic conditions). […] It is now clear that this polar intermediate accounts for most, or all, of the radioactivity released by any denaturation method, chromatographs anomalously, and is inadvertently converted to [^3 H]dihydrofinasteride during heat-denaturation."}, "[5]": {"target": "T2, human prostate (type 2) 5α-reductase (Homo sapiens, UniProt P31213)", "T2 sequence (P31213 1-254)": "T1 sequence (P31213 1-254)", "conditions": "read-out: Km for testosterone; native human prostate enzyme, neutral pH; Faller et al.; cited from earlier work"}, "[6]": {"target": "T2, human prostate (type 2) 5α-reductase", "experiment": "Steady-state enzyme kinetics of substrates", "format": "biochemical", "set-up": "native prostate enzyme considered interchangeable", "conditions": "pH 7.2, 37° C.", "description": "The model applies in many aspects to both slow-binding, reversible inhibitors and to mechanism-based, irreversible ones.\nWhen tissue extracts were the source of enzyme, the quenched reactions were clarified by centrifugation at 10,000×g before analysis."}},
  "note": "Like-named read-outs stand apart in the source and are kept apart here.",
  "data": [
    {"compound": "NC(=O)C1=CN([C@@H]2O[C@H](COP(=O)(O)OP(=O)(O)OC[C@H]3O[C@@H](n4cnc5c(N)ncnc54)[C@H](O)[C@@H]3O)[C@@H](O)[C@H]2O)C=CC1CC(=O)C(=O)O", "note": "(stereo partly drawn) [NAD-pyruvate adduct]", "values": [
      {"measurement": "stability", "setting": "[1]", "value": "so unstable as to preclude normal kinetic measurements"}
    ]},
    {"compound": "CC(C)(C)NC(=O)[C@H]1CC[C@H]2[C@@H]3CC[C@H]4NC(=O)C(C5C=CN([C@@H]6O[C@H](COP(=O)(O)OP(=O)(O)OC[C@H]7O[C@@H](n8cnc9c(N)ncnc98)[C@H](OP(=O)(O)O)[C@@H]7O)[C@@H](O)[C@H]6O)C=C5C(N)=O)C[C@]4(C)[C@H]3CC[C@]12C", "note": "(stereo partly drawn) [NADP-dihydrofinasteride adduct]", "values": [
      {"measurement": "rate constant for release of adduct from competent enzyme", "setting": "[2]; bounded by observed decay of enzyme-[^3 H]finasteride complex", "value": "≤ 3e-07", "unit": "s⁻¹"},
      {"measurement": "rate constant for binding of adduct to free enzyme, k-3", "setting": "[2]; extrapolated to zero pyridine-nucleotide cofactor", "value": "~ 1×10^6 M^-1 s^-1"},
      {"measurement": "mode of inhibition", "setting": "[2]; versus NADPH and testosterone", "value": "competitive with the first substrate (NADPH) and independent of saturating concentrations of the second (testosterone)"},
      {"measurement": "half-life", "setting": "[3]; 0.1M ammonium formate, pH 4.00, 100° C., read-out: halflife for decomposition", "value": "~1", "unit": "min"},
      {"measurement": "degraded", "setting": "[3]; 0.1m ammonium formate, pH 4, 0.1M ammonium formate, pH 4.00, 100° C., read-out: conversion to [^14 C]-dihydrofinasteride at infinite time", "value": 88, "unit": "%"},
      {"measurement": "degraded at 0.235 µM", "setting": "[3]; pH 7.2, 37° C., read-out: conversion at infinite time, by nonlinear regression", "value": "75.4 ± 1.5", "unit": "%"},
      {"measurement": "degraded at 0.235 µM", "setting": "[3]; pH 7.2, read-out: completion at infinite time, by heating at 100° C.", "value": 75.3, "unit": "%"},
      {"measurement": "storage stability", "setting": "[3]; ammonium bicarbonate buffer, pH 9, -75° C.", "value": "stable for months"},
      {"measurement": "stability relative to NAD-pyruvate counterpart", "setting": "[3]; oxidation and dissociation", "value": "more stable to oxidation, and certainly to dissociation,than its NAD-pyruvate counterpart"},
      {"measurement": "rate constant kx for nonenzymatic breakdown to NADP^+ and dihydrofinasteride", "setting": "[3]; pH 7.2, 37° C.", "value": "7.21+0.27×10^-7 s^-1"},
      {"measurement": "half-life", "setting": "[3]; pH 7.2, 37° C., read-out: halflife of nonenzymatic breakdown (converted)", "value": 16000, "unit": "min"},
      {"measurement": "degraded", "setting": "[3]; pH 7.2, pH 7.2, 37° C., read-out: completion of formation of [^14 C]dihydrofinasteride at infinite time", "value": 75, "unit": "%"},
      {"measurement": "ability to dissociate to [^14 C]-dihydrofinasteride after oxidation", "setting": "[3]; listed as NADP-[^14 C]dihydrofinasteride adduct", "value": "completely abolished the ability to dissociate to [^14 C]-dihydrofinasteride"},
      {"measurement": "ability to dissociate to [^14 C]-dihydrofinasteride after oxidation", "setting": "[3]; listed as covalent adduct of inhibitor and cofactor", "value": "abolished by treatment with pyrazine methosulfate"},
      {"measurement": "rate constant of decomposition", "setting": "[3]; water, neutral pH, 100° C.", "value": "~ 6×10^-4 s^-1"},
      {"measurement": "half-life", "setting": "[3]; water, neutral pH, 100° C., read-out: halflife of decomposition", "value": 20, "unit": "min"},
      {"measurement": "radioactivity partitioning into chloroform", "setting": "[4]", "value": "< 5", "unit": "%"}
    ]},
    {"compound": "C[C@]12CC[C@H]3[C@@H](CCC4=CC(=O)CC[C@@]43C)[C@@H]1CC[C@@H]2O", "note": "[testosterone]", "values": [
      {"measurement": "Km", "setting": "[5]", "value": "0.02 ± 0.003", "unit": "µM"},
      {"measurement": "kcat/Km", "setting": "[6]", "value": "2.99±0.32×10^6 M^-1 s^-1"},
      {"measurement": "turnover number kcat", "setting": "[6]; by titration with finasteride", "value": "0.075 ± 0.006", "unit": "s⁻¹"}
    ]}
  ]
}
